Results on 4 compounds are retold here after PubChem BioAssay (NCI).

Test in all cases: NCI-60 cell line screen, 48 h
The subject of experiment [1] is RXF 393 renal.
In experiment [2] the test system is MDA-MB-231 breast.
Experiment [3] concerns MALME-3M melanoma.
Experiment [4] relates to PC-3 prostate.
In experiment [5] the test system is SK-OV-3 ovarian.
The test system of experiment [6] is ACHN renal.
Experiment [7] deals with HL-60(TB) leukemia.
Experiment [8] deals with HOP-62 NSCLC.
Experiment [9] relates to SW-620 colon.
Experiment [10] concerns K-562 leukemia.
In experiment [11] the test system is UACC-62 melanoma.

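The compound was tested at five concentrations on cells cultured in 96-well plates, with a 48-hour exposure period. TGI: concentration producing complete growth inhibition.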

`COC12C=CC(C=C1C#N)CC2` (centres undefined) (tested in a mixture with another compound): the TGI in experiment [1], in [2], in [3], in [4], in experiment [5] and in experiment [6] was more than 100 µM in each case. The TGI in [7], in experiment [8], in experiment [9], in experiment [10] and in [11] was more than 100 µM each time.

As for `CN(C)CCNC(=O)c1ccc(Cl)c2cc3ccccc3nc12`, the TGI in [1] stood at 3.08 µM; in [2], 3 µM; in [3] it was 2.26 µM; in [4], 2.6 µM; in [5], 12.8 µM; in [6] it was 12.1 µM. The TGI worked out at 3.98 µM in [7]; 4.6 µM in experiment [8]; 6.68 µM in experiment [9]; 12.3 µM in experiment [10]; 2.85 µM in [11].

In the case of `CC(C)(C)OC(=O)N1[C@@H]2Cc3ccc(N)cc3[C@@]1(C)c1ccccc12`, the TGI in experiment [1] was 31.1 µM; in [2], 75.3 µM; in experiment [3], 91 µM; in experiment [4] it was more than 100 µM; in [5], more than 100 µM; in experiment [6] it was more than 100 µM. Besides, the TGI in experiment [7] is 44.9 µM; in experiment [8] it was more than 100 µM; in experiment [9] it was more than 100 µM; in [10] it was 62.6 µM; in [11], 53.6 µM.

Turning to `COc1ccc(CNc2nc3cc(C(F)(F)F)ccc3nc2-c2ccccc2)cc1OC`, the TGI in experiment [1], in [2], in [3], in [4], in experiment [5] and in experiment [6] was more than 100 µM each time. In addition, the TGI in [7], in [8], in experiment [9], in experiment [10] and in experiment [11] was more than 100 µM in each case.
